Where a name gives a salt, the structure may show the parent alone.
Columns and labels:
[1] = tested on: MTT (mouse pheochromocytoma); assay: efficacy (maximal response) relative to doxorubicin = -100% and DMSO = 0%; higher = less inhibition of viability; settings: (24 or 48 h)
[2] = tested on: MTT (mouse pheochromocytoma); assay: IC50 of cell viability (ATP content); AC50 where efficacy is positive; settings: (24 or 48 h)

Row | Structure (SMILES) | efficacy [1] [%] | IC50 of cell viability [2] [µM]
1 | COc1cc(-c2ccc(-[n+]3nc(-c4ccccc4)nn3-c3ccc([N+](=O)[O-])cc3)c(OC)c2)ccc1-[n+]1nc(-c2ccccc2)nn1-c1ccc([N+](=O)[O-])cc1 [NITROBLUE TETRAZOLIUM CHLORIDE] | -107 | 21.1
2 | O=C(Nc1ccc([N+](=O)[O-])cc1)Nc1ccc([N+](=O)[O-])cc1 [Nicarbazin] | -44.1 | 10.6
3 | O=C(Nc1ccc([N+](=O)[O-])cc1Cl)c1cc(Cl)ccc1O [Niclosamide] | -41.1 | 0.473
4 | O=[N+]([O-])c1ccc(O)c2ncccc12 [Nitroxoline] | -85.8 | 21.1
5 | COC(=O)Nc1nc2cc(C(=O)c3cccs3)ccc2[nH]1 [Nocodazole] | -60.2 | 0.531
6 | C[N+]1(CC2COC(c3ccccc3)(C3CCCCC3)O2)CCCCC1 (centres undefined) [OXAPIUM IODIDE] | -60.2 | 6.68
7 | CCCOc1ccc2[nH]c(NC(=O)OC)nc2c1 [OXIBENDAZOLE] | -39 | 0.531
8 | Oc1cc[c]([Hg][Cl])cc1 [PARA-CHLOROMERCURIPHENOL] | -97.8 | 2.37
9 | CC(=O)[O][Hg][c]1ccccc1 [PHENYLMERCURIC ACETATE] | -93.4 | 2.37
10 | [Hg+][c]1ccccc1 [PHENYLMERCURIC BORATE] | -91.5 | 2.99
11 | O=Cc1ccccc1C=O [PHTHARAL] | -54.4 | 13.3
12 | Cc1cc(CC(C)CC(C)(C)C)n(O)c(=O)c1 (centres undefined) [PIROCTONE OLAMINE] | -49 | 15
13 | Nc1ccc2cc3ccc(N)cc3nc2c1 [PROFLAVINE HEMISULFATE] | -91.5 | 8.41
14 | COc1ccc(CC(N)C(=O)NC2C(CO)OC(n3cnc4c(N(C)C)ncnc43)C2O)cc1.Cl.Cl (centres undefined) [PUROMYCIN HYDROCHLORIDE] | -63.1 | 11.9
15 | CC(=O)O[C@H]1C(=O)[C@@]2(C)[C@H]([C@H](OC(=O)c3ccccc3)[C@]3(O)CC(OC(=O)C(O)C(NC(=O)c4ccccc4)c4ccccc4)C(C)=C1C3(C)C)[C@]1(OC(C)=O)CO[C@@H]1C[C@@H]2O (some centres undefined) [Paclitaxel] | -50.9 | 0.0376
16 | CCCCc1ccc2[nH]c(NC(=O)OC)nc2c1 [Parbendazole] | -45.1 | 0.453
17 | C=C1C(=O)O[C@@H]2[C@@H]1CC/C(C)=C\CC[C@@]1(C)O[C@H]21 [Parthenolide] | -104 | 8.41
18 | NNCCc1ccccc1 [Phenelzine sulfate] | -52.6 | 5.08
19 | Cc1ccc2c(c1)c1c3n2CCNC3CCC1 (centres undefined) [Pirlindole mesylate] | -45.7 | 21.1
20 | CC(C)NC(=N)NC(=N)Nc1ccc(Cl)cc1 [Proguanil hydrochloride] | -59 | 4.53
21 | CCc1nc(N)nc(N)c1-c1ccc(Cl)cc1 [Pyrimethamine] | -35 | 8.41
22 | Cc1cc(/C=C\c2ccc3cc(N(C)C)ccc3[n+]2C)c(C)n1-c1ccccc1.Cc1cc(/C=C\c2ccc3cc(N(C)C)ccc3[n+]2C)c(C)n1-c1ccccc1.O=C([O-])c1cc2ccccc2c(Cc2c(O)c(C(=O)[O-])cc3ccccc23)c1O [Pyrvinium pamoate] | -33.3 | 0.64
23 | COc1cc(NCCCC(C)N)c2ncccc2c1 (centres undefined) [QUINOCIDUM] | -93.9 | 18.8
24 | CCN1/C(=C/C=C/c2ccc3ccccc3[n+]2CC)C=Cc2ccccc21 [Quinaldine blue] | -34.9 | 0.299
25 | C#C[C@]1(O)CC[C@H]2[C@@H]3CCc4cc(OC5CCCC5)ccc4[C@H]3CC[C@@]21C [Quinestrol] | -61.1 | 18.8
26 | COC(=O)C12CCC(C)(C)CC1C3C(=O)\C=C4/C(C)(CCC5C(C)(C)C(=O)\C(=C/C45C)C#N)C3(C)CC2 (centres undefined) [RTA 402] | -108 | 6.68

Row | Structure (SMILES) | efficacy [1] [%] | IC50 of cell viability [2] [µM]
27 | CC[C@@]1(O)C(=O)OC/C2=C1/C=C/3N(CC4=CC5=C(C=CC=C5[N+]([O-])=O)N=C34)C2=O [RUBITECAN] | -54.5 | 0.422
28 | C[C@@H]1CN(CCCn2c3ccccc3c3ccccc32)C[C@H](C)N1 [Rimcazole dihydrochloride] | -89.8 | 21.1
29 | C=C(C)[C@H]1Cc2c(ccc3c2O[C@@H]2COc4cc(OC)c(OC)cc4[C@@H]2C3=O)O1 [Rotenone] | -124 | 2.66
30 | [Na+].CCC(C1CCC(C)C(O1)C(C)C(O)C(C)C(=O)C(CC)C2OC\3(O[C@]4(CC[C@@](C)(O4)C5CC[C@@](O)(CC)C(C)O5)C(O)\C=C3)C(C)CC2C)C([O-])=O (some centres undefined) [SALINOMYCIN, SODIUM] | -47.9 | 3.35
31 | CNC(=O)c1cc(Oc2ccc(NC(=O)Nc3ccc(Cl)c(C(F)(F)F)c3)cc2)ccn1 [SORAFENIB TOSYLATE] | -44.4 | 8.41
32 | O=C(CCCCCCC(=O)Nc1ccccc1)NO [SUBEROYLANILIDE HYDROXAMIC ACID] | -58.6 | 2.37
33 | C[n+]1cc2c3c(ccc2c2ccc4cc5c(cc4c21)OCO5)OCO3 [Sanguinarine] | -87.7 | 8.41
34 | CN[C@H]1CC[C@@H](c2ccc(Cl)c(Cl)c2)c2ccccc21 [Sertraline hydrochloride (Zoloft)] | -39.9 | 15
35 | CC(C)COC(=O)OCN1C(=O)CN(CCN2CC(=O)N(COC(=O)OCC(C)C)C(=O)C2)CC1=O [Sobuzoxane] | -56.1 | 0.841
36 | O=C(CCCCCCC(=O)Nc1ccccc1)NO [Suberoylanilide Hydroxamic Acid] | -43.5 | 0.0531
37 | O=c1n(CC2CO2)c(=O)n(CC2CO2)c(=O)n1CC1CO1 (centres undefined) [TEROXIRONUM] | -43.7 | 4.22
38 | C[CH2][Hg][S]c1ccccc1C(=O)[O-].[Na+] [THIMEROSAL] | -86.9 | 2.99
39 | CCOC(=O)c1c(N)sc2c1CCN(Cc1ccccc1)C2 [TINORIDINE HYDROCHLORIDE] | -45.5 | 11.9
40 | C[N+]12CCCC[C@@H]1CCC(=C(c1cccs1)c1cccs1)C2 (some centres undefined) [TIQUIZIUM BROMIDE] | -51.7 | 1.88
41 | Cl.CC[C@@]1(O)C(=O)OCC/2=C1/C=C/3N(CC4=C3N=C5C=CC(=C(CN(C)C)C5=C4)O)C2=O [TOPOTECAN HYDROCHLORIDE] | -89.7 | 4.73
42 | COc1cc(NCc2ccc3nc(N)nc(N)c3c2C)cc(OC)c1OC [TRIMETREXATE GLUCURONATE] | -50.7 | 0.376
43 | Cc1cc(-c2ccc(/N=N/c3c(S(=O)(=O)[O-])cc4cc(S(=O)(=O)[O-])cc(N)c4c3O)c(C)c2)ccc1/N=N/c1c(S(=O)(=O)[O-])cc2cc(S(=O)(=O)[O-])cc(N)c2c1O [TRYPAN BLUE] | -37.4 | 2.37
44 | c1ccc2[nH]c(-c3cscn3)nc2c1 [Thiabendazole] | -40 | 9.44
45 | OC[C@H]1O[C@@H](n2cnc3c(S)ncnc32)[C@H](O)[C@@H]1O [Thionosine] | -85.4 | 18.8
46 | O=C(Nc1ccc(Br)cc1)c1cc(Br)c(Br)s1 [Tibrofan] | -64.5 | 26.6
47 | CCCOc1ccc2nc(NC(=O)OC)sc2c1 [Tioxidazole] | -55.6 | 11.9
48 | O=C(Nc1ccc(Cl)cc1)Nc1ccc(Cl)c(Cl)c1 [Triclocarban] | -121 | 26.6
49 | COc1cc2c(Nc3ccc(Br)cc3F)ncnc2cc1OCC1CCN(C)CC1 [VANDETANIB] | -102 | 26.6
50 | CCCCC(=O)OCC(=O)[C@]1(O)Cc2c(O)c3c(c(O)c2[C@H](OC2CC(NC(=O)C(F)(F)F)C(O)C(C)O2)C1)C(=O)c1c(OC)cccc1C3=O (some centres undefined) [Valrubicin] | -78 | 16.8
51 | [Zn++].[O-]N1\C=C/C=C\C1=S.[O-]N2\C=C/C=C\C2=S [Zinc pyrithione] | -90.6 | 2.11
52 | OCCN1CCN(CC/C=C2/c3ccccc3Sc3ccc(C(F)(F)F)cc32)CC1 [cis-(Z)-FLUPENTHIXOL] | -85.6 | 23.7
